Assay results taken from PubChem BioAssay AID248 (DTP/NCI, 2004).
Where “and” joins values, the source holds several entries; their conditions need not be identical. Identical values can stand only once. Toxic doses and inconclusive results are not listed. No stated cut-off is given here; in the data, active means T/C of 150% or more; inactive means T/C below 125%.

Tested on: L1210 leukemia ip in BDF1 mice, survival T/C
Assay: NCI In Vivo Anticancer Drug Screen. Data for tumor model L1210 Leukemia (intraperitoneal) in B6D2F1 (BDF1) mice
Conditions: endpoint: mean survival time, higher = longer survival
Procedure, shortened: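 Antitumor effect is assessed in tumor-bearing animals. Survival in the compound arm is compared with a vehicle-dosed control arm and expressed as their quotient.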

[1] = dose: 50.0 mg/kg/injection, schedule: Q01DX009 (ip), vehicle: saline
[2] = dose: 100.0 mg/kg/injection, schedule: Q01DX009 (ip), vehicle: saline
[3] = dose: 100.0 mg/kg/injection, schedule: Q04DX003 (ip), vehicle: saline
[4] = dose: 100.0 mg/kg/injection, schedule: Q01DX009 (ip), vehicle: saline with Tween-80
[5] = dose: 100.0 mg/kg/injection, schedule: Q01DX001 (ip), vehicle: saline
[6] = dose: 200.0 mg/kg/injection, schedule: Q01DX001 (ip), vehicle: saline
[7] = dose: 400.0 mg/kg/injection, schedule: Q01DX001 (ip), vehicle: saline
[8] = dose: 100.0 mg/kg/injection, schedule: Q04DX003 (ip), vehicle: saline with Tween-80
[9] = dose: 200.0 mg/kg/injection, schedule: Q04DX003 (ip), vehicle: saline with Tween-80
[10] = dose: 400.0 mg/kg/injection, schedule: Q04DX003 (ip), vehicle: saline with Tween-80
[11] = dose: 200.0 mg/kg/injection, schedule: Q01DX009 (ip), vehicle: saline with Tween-80
[12] = dose: 100.0 mg/kg/injection, schedule: Q01DX001 (ip), vehicle: carboxymethylcellulose (CMC)
[13] = dose: 200.0 mg/kg/injection, schedule: Q01DX001 (ip), vehicle: carboxymethylcellulose (CMC)
[14] = dose: 25.0 mg/kg/injection, schedule: Q01DX009 (ip), vehicle: Klucel (hydroxypropylcellulose) (HPC)
[15] = dose: 50.0 mg/kg/injection, schedule: Q01DX009 (ip), vehicle: Klucel (hydroxypropylcellulose) (HPC)
[16] = dose: 100.0 mg/kg/injection, schedule: Q01DX009 (ip), vehicle: Klucel (hydroxypropylcellulose) (HPC)
[17] = dose: 100.0 mg/kg/injection, schedule: Q04DX002 (ip), vehicle: Klucel (hydroxypropylcellulose) (HPC)
[18] = dose: 200.0 mg/kg/injection, schedule: Q01DX009 (ip), vehicle: saline
[19] = dose: 200.0 mg/kg/injection, schedule: Q04DX002 (ip), vehicle: Klucel (hydroxypropylcellulose) (HPC)
[20] = dose: 400.0 mg/kg/injection, schedule: Q01DX001 (ip), vehicle: carboxymethylcellulose (CMC)

Measured: T/C

Cn1c(O)c(C=N)c(=O)n(C)c1=O
inactive: dose: 25.0 mg/kg/injection, schedule: Q01DX009 (ip), vehicle: saline 101 % of control | [1] 100 % of control | [2] 87 % of control | [3] 98 % of control

Nc1cccc(Cl)c1
inactive: dose: 25.0 mg/kg/injection, schedule: Q01DX009 (ip), vehicle: saline with Tween-80 92 % of control | dose: 50.0 mg/kg/injection, schedule: Q01DX009 (ip), vehicle: saline with Tween-80 92 % of control | [4] 95 % of control | dose: 100.0 mg/kg/injection, schedule: Q04DX003 (ip), vehicle: Klucel (hydroxypropylcellulose) (HPC) 95 % of control | dose: 200.0 mg/kg/injection, schedule: Q04DX003 (ip), vehicle: Klucel (hydroxypropylcellulose) (HPC) 90 % of control

C1CC2CCCC3C4CCCC5CCCC(C(C1)C23)C54 (stereo unspecified)
inactive: [5] 94 % of control | [6] 100 % of control | [7] 97 % of control

COP(=S)(N/N=C/c1ccccn1)OC
inactive: [8] 106 % of control | [9] 97 % of control | [10] 108 % of control

c1ccc(CCN2CCN(CCc3ccccn3)CC2)nc1
inactive: [5] 98 % of control

NC(=O)C(N)Cc1ccc(OCc2ccccc2)c(OCc2ccccc2)c1 (stereo unspecified)
inactive: dose: 100.0 mg/kg/injection, schedule: Q01DX001 (ip), vehicle: saline with Tween-80 92 % of control | [4] 101 % of control | dose: 200.0 mg/kg/injection, schedule: Q01DX001 (ip), vehicle: saline with Tween-80 94 % of control | [11] 95 % of control | dose: 400.0 mg/kg/injection, schedule: Q01DX001 (ip), vehicle: saline with Tween-80 86 % of control

CC(CC(CCC(=O)O)(c1ccccc1)c1ccccc1)N(C)C (stereo unspecified)
inactive: [12] 105 % of control | [13] 97 % of control

CC(=O)NC1CCC(C)CC1 (stereo unspecified)
inactive: dose: 50.0 mg/kg/injection, schedule: Q01DX001 (ip), vehicle: saline 109 % of control | dose: 100.0 mg/kg/injection, schedule: Q01DX001 (ip), vehicle: Klucel (hydroxypropylcellulose) (HPC) 93 % of control | [5] 93 % of control | [6] 102 % of control

Cc1nnc(NS(=O)(=O)c2ccc(N=Nc3c(N)[nH]c(=O)[nH]c3=O)cc2)s1
inactive: [5] 96 % of control | [6] 111 % of control | [7] 98 % of control

O=C1CCCC23C4CCCC4C12C1CCCC13 (stereo unspecified)
inactive: dose: 100.0 mg/kg/injection, schedule: Q04DX002 (ip), vehicle: gum acacia 100 % of control | dose: 200.0 mg/kg/injection, schedule: Q04DX002 (ip), vehicle: gum acacia 97 % of control | dose: 400.0 mg/kg/injection, schedule: Q04DX002 (ip), vehicle: gum acacia 100 % of control

Cc1cccc(NC(=O)/C=C/c2ccccc2)n1
inactive: [14] 96 % of control | [15] 89 % of control | [16] 103 % of control and 91 % of control | [17] 91 % of control

C/C=C(/C)C(=O)O[C@H]1CCN2CC=C(COC(=O)[C@@](O)([C@H](C)OC)C(C)(C)O)[C@H]12
inactive: dose: 5.0 mg/kg/injection, schedule: Q01DX001 (ip), vehicle: other 100 % of control | dose: 7.5 mg/kg/injection, schedule: Q04DX003 (ip), vehicle: Klucel (hydroxypropylcellulose) (HPC) 97 % of control | dose: 10.0 mg/kg/injection, schedule: Q01DX001 (ip), vehicle: other 105 % of control | dose: 15.0 mg/kg/injection, schedule: Q04DX003 (ip), vehicle: Klucel (hydroxypropylcellulose) (HPC) 103 % of control | dose: 20.0 mg/kg/injection, schedule: Q01DX001 (ip), vehicle: other 100 % of control | dose: 30.0 mg/kg/injection, schedule: Q04DX003 (ip), vehicle: Klucel (hydroxypropylcellulose) (HPC) 103 % of control | dose: 40.0 mg/kg/injection, schedule: Q01DX001 (ip), vehicle: other 102 % of control | dose: 60.0 mg/kg/injection, schedule: Q04DX003 (ip), vehicle: Klucel (hydroxypropylcellulose) (HPC) 97 % of control | dose: 80.0 mg/kg/injection, schedule: Q01DX001 (ip), vehicle: other 103 % of control

CC(C)CC(=O)Nc1ccc(S(=O)(=O)Cl)cc1
inactive: [4] 106 % of control | [8] 92 % of control | [11] 101 % of control | [9] 86 % of control | dose: 400.0 mg/kg/injection, schedule: Q01DX009 (ip), vehicle: saline with Tween-80 94 % of control | [10] 89 % of control

CCCCCCCC(=O)OCCCl
inactive: [2] 94 % of control | [18] 97 % of control | dose: 400.0 mg/kg/injection, schedule: Q01DX009 (ip), vehicle: saline 91 % of control

CCOP(=O)(OCC)C(c1ccccc1)(c1ccccc1)c1ccccc1
inactive: dose: 100.0 mg/kg/injection, schedule: Q04DX002 (ip), vehicle: saline with Tween-80 90 % of control | dose: 200.0 mg/kg/injection, schedule: Q04DX002 (ip), vehicle: saline with Tween-80 90 % of control | dose: 400.0 mg/kg/injection, schedule: Q04DX002 (ip), vehicle: saline with Tween-80 90 % of control

Cc1ccc(C(=O)N2C(=O)Cc3ccccc32)cc1
inactive: dose: 50.0 mg/kg/injection, schedule: Q04DX002 (ip), vehicle: Klucel (hydroxypropylcellulose) (HPC) 90 % of control | [17] 94 % of control | [19] 94 % of control

CC(=O)OCC1CCCN1C(C)=O (stereo unspecified)
inactive: [1] 101 % of control | [2] 101 % of control | [18] 101 % of control

Cn1cnc2cc(N=Cc3ccc(N(CCCl)CCCl)cc3F)ccc21
inactive: [17] 104 % of control | [19] 101 % of control | dose: 400.0 mg/kg/injection, schedule: Q04DX002 (ip), vehicle: Klucel (hydroxypropylcellulose) (HPC) 97 % of control

CCOC(=O)CC1(C)CCC2C1C(=O)OC2(C)C (stereo unspecified)
inactive: [5] 105 % of control | [6] 104 % of control | [7] 110 % of control

c1ccc2cc3nc4ccccc4nc3cc2c1
inactive: dose: 100.0 mg/kg/injection, schedule: Q01DX001 (ip), vehicle: acetone 92 % of control | [3] 108 % of control | dose: 200.0 mg/kg/injection, schedule: Q01DX001 (ip), vehicle: acetone 97 % of control | dose: 200.0 mg/kg/injection, schedule: Q04DX003 (ip), vehicle: saline 101 % of control | dose: 400.0 mg/kg/injection, schedule: Q01DX001 (ip), vehicle: acetone 86 % of control | dose: 400.0 mg/kg/injection, schedule: Q04DX003 (ip), vehicle: saline 111 % of control

COc1ccc(-c2ccccc2C(=O)O)cc1
inactive: [12] 107 % of control | [13] 96 % of control | [20] 100 % of control

CC(CS)CS
inactive: [12] 95 % of control | [13] 95 % of control | [20] 95 % of control

O=CO.[Cr]
inactive: [5] 102 % of control | [6] 98 % of control | [7] 98 % of control

CC(=O)/C=N/Nc1ccccc1
inactive: [14] 93 % of control | [15] 97 % of control | dose: 50.0 mg/kg/injection, schedule: Q04DX003 (ip), vehicle: carboxymethylcellulose (CMC) 110 % of control | [16] 97 % of control | dose: 100.0 mg/kg/injection, schedule: Q04DX003 (ip), vehicle: carboxymethylcellulose (CMC) 106 % of control

C1CSP(SCCSP2SCCS2)S1
inactive: dose: 25.0 mg/kg/injection, schedule: Q01DX009 (ip), vehicle: carboxymethylcellulose (CMC) 87 % of control and 88 % of control | dose: 25.0 mg/kg/injection, schedule: Q04DX002 (ip), vehicle: carboxymethylcellulose (CMC) 95 % of control and 90 % of control | dose: 50.0 mg/kg/injection, schedule: Q01DX009 (ip), vehicle: carboxymethylcellulose (CMC) 95 % of control | dose: 50.0 mg/kg/injection, schedule: Q04DX002 (ip), vehicle: carboxymethylcellulose (CMC) 97 % of control and 90 % of control | dose: 100.0 mg/kg/injection, schedule: Q01DX009 (ip), vehicle: carboxymethylcellulose (CMC) 95 % of control and 91 % of control | dose: 200.0 mg/kg/injection, schedule: Q04DX002 (ip), vehicle: carboxymethylcellulose (CMC) 94 % of control
